In one data set the test system is patients. As to conditions: cited from earlier work.
For a further data set, the system named is rats. As to conditions: cited from earlier work.
The next data set addresses T1, P2X2/3 (Homo sapiens, UniProt P56373+Q9UBL9).
T1 construct: expressed in transfected cells; host or cells: HEK293
T1 sequence (Q9UBL9 1-471): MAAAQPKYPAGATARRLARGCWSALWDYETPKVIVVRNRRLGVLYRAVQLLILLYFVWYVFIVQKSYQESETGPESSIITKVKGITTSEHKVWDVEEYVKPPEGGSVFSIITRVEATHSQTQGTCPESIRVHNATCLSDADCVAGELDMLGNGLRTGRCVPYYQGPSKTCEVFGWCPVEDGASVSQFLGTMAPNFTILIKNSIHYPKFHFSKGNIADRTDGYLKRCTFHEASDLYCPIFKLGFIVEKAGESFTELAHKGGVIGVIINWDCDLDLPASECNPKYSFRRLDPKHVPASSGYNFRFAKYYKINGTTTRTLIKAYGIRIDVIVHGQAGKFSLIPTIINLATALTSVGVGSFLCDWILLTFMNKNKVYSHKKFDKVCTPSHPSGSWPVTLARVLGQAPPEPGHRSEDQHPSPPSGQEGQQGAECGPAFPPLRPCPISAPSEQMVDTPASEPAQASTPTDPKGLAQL
T1 sequence (P56373 1-397): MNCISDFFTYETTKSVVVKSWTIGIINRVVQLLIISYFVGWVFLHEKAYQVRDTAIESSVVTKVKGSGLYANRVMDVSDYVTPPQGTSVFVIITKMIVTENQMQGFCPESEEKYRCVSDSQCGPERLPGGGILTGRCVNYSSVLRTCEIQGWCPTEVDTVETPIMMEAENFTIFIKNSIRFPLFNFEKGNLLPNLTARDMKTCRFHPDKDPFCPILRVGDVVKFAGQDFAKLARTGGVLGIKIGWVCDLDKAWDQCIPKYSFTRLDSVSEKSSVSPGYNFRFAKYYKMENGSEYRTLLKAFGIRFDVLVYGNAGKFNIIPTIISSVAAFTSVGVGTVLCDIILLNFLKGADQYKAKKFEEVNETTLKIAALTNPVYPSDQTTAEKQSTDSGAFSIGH
In words: P2X2/3 stable HEK293 cell lines responding to α,β-meATP (screening assay). The format is cell-based. How it is done:
In this study, we built stable cell lines expressing P2X2/3 in HEK293 cells via transfection with either P2X2-Neo or P2X3-Zeo constructs, following which selection was performed using Zeocin, G418. Picked clones were grown out from single cells (cultured continuously in the presence of Zeocin and G418) using cloning rings.
The resulted stable cell lines are used for characterizing putative taste-blockers.

For data set [1] the following is noted: in vivo; cited from earlier work.
For data set [2] the following is noted: clinical trial; cited from earlier work.

Molecules are shown by their SMILES. Like-named read-outs stand apart in the source and are kept apart here.

Procedure for humans: In some experiments, we used a regimen of two 1-minute rinses with 500 μM AF-353 composition (i.e., oral topical administration).
In this study, we tested an AF-353 composition in humans as an oral rinse after receiving IRB approval for its use. First, we tested rinsing 100 μM (0.04 mg/mL) orally for 2 minutes as 4×30 sec rinses with expectoration. We tested before and after sour, bitter, sweet, and salty solutions (quinine HCl, NaCl, Praziquantal, sucrose, CO2).
Next, we tested rinsing 500 μM (0.2 mg/mL) AF-353 for two minutes, in 2×1 min increment rinses with expectoration.

In the case of `COc1cc(C(C)C)c(Oc2cnc(N)nc2N)cc1S(N)(=O)=O` [AF-219, 5-[(2,4-diaminopyrimidin-5-yl)oxy]-2-methoxy-4-(propan-2-yl)benzene-1-sulfonamide], the taste block result with humans (500 μM, preliminary test) is “did not block taste”. Also, the taste disturbances result was “taste disturbances in all patients tested” in the data set with patients (600 mg twice daily) and “also cause taste disturbances, albeit less severe” in the data set with patients (doses as low as 7.5-50 mg twice daily).

Take `CNC(=O)c1cc(F)c(-c2nc3cc(C)ccn3c2C[C@@H]2CCCN(C(=O)OC)C2)c(F)c1` [BLU-5937, Methyl (S)-3-((2-(2,6-difluoro-4-(methylcarbamoyl)phenyl)-7-methylimidazo[1,2-a]pyridin-3-yl)methyl)piperidine-1-carboxylate]: in the data set on rats (rat, 10-20 mg/kg intraperitoneally), the influence on taste result is given as “did not influence taste”. Also, the “behaviour towards 0.3 mM quinine hydrochloride in two-bottle choice” value in the data set with rats (rats, 10 or 20 mg/kg ip, 15-min test) is “avoided the quinine”.

On to `Nc1ncnc2c1ncn2[C@@H]1O[C@H](COP(=O)(O)CP(=O)(O)OP(=O)(O)O)[C@@H](O)[C@H]1O` [α,β-meATP], for which the concentration for half-maximal inhibition (IC50) against P2X2/3 (P2X2/3 stable Line 2) amounted to 2.01 µM; against P2X2/3 (P2X2/3 stable Line 6), 2.1 µM; on P2X2/3 (P2X2/3 stable Line 9) it was 3.93 µM; on P2X2/3 (P2X2/3 stable Line 12), 1.78 µM; against P2X2/3 (P2X2/3 stable Line 24) it was 2.75 µM.

Turning to `Cc1cnc(-c2cc(O[C@@H]3CCOC3)cc(C(=O)N[C@H](C)c3cnc(C(F)(F)F)nc3)c2)s1` [eliapixant], the “effects on ratings of taste intensity measured using taste strips” value in data set [1] is reported as “no concerted effects”. In addition, the “taste-related adverse events (primarily dysgeusia)” value in data set [2] was “caused taste-related adverse events”.

On to `O=C(NCC12CC3CC(CC(C3)C1)C2)c1cc(CCCNCCCO)ccc1Cl` [AZD-9056], for which the taste block entry in the data set with humans (various concentration, negative control composition) is reported as “did not block taste”.

The IC50 is the point on the concentration scale where inhibition reaches its midpoint. High values mean weaker potency, low ones greater potency.

The values are drawn from US20240408211A1, “COMPOSITIONS AND METHODS OF AMELIORATING AVERSIVENESS OF AVERSIVE STIMULI BY INHIBITION OF PURINERGIC RECEPTORS” (Monell Chemical Senses Center, priority 2021, published 2024).
